The values that follow come from patent publication US4678780A, “Anti-spasmodic agents having a ring in the main chain” (United Pharmaceuticals, Inc., priority 1986, dated 1987).

Structures can show the parent of a compound that is named as a salt.

One data set deals with muscarinic receptors. The data set is classed as binding, rabbit (New Zealand White). To be noted: at a concentration of 1.0 × 10^-5 M; 0.1 nM [3H]QNB; 37° C., 60 min; pH 7.4.
The conditions of data set [1]: in vivo; cited from earlier work.
Data set [2] concerns gastrointestinal tract, biliary tract, ureter and uterus. The note with it: in vivo; cited from earlier work.

For `CCN(CC)CCSC(=O)c1ccc(C(C)(C)C)cc1` [4-t-butyl-benzoyl-thio-S-(2-diethylaminoethyl)-ester.HCl], in the data set on muscarinic receptors, the “% inhibition of ^3 H[QNB] binding” value worked out at 21%.

Turning to `CCN(CC)CCSC(=O)C(c1ccccc1)c1ccccc1` [Thiphenamil hydrochloride], in data set [1], the atropinic side effects entry is “without producing characteristic atropinic side effects on salivary and sweat glands, GI glands, the eye or the cardiovascular system”. Besides, in data set [2], the decrease spasm result was “decrease spasm of the gastrointestinal tract, biliary tract, ureter and uterus”.
